How the values were obtained:
[1] = test system: cellules rétiniennes épithéliales ARPE-19; experiment: Cytolysis after 30 min or 5 min exposure (Example 4); format: cell-based
Experimental: (§1) Dans cet essai, on évalue également l'influence de la présence d'eau lourde dans les solutions sur leur cytotoxicité vis-à-vis de cellules rétiniennes épithéliales ARPE-19 fournies par ATCC, dans les mêmes conditions générales que dans l'exemple 1.
(§2) Les cellules sont exposées aux solutions 30 minutes dans une première série d'essais, et cinq minutes dans une deuxième série d'essais. Des mesures de cytolyse sont réalisées 1,5 h et 48 h après ce traitement.
(§3) Les mêmes mesures sont effectuées à titre de comparaison sur composition de Monoblue® 0,15% commercialisée par la société Arcadophta, Toulouse, France, sur une solution d'eau oxygénée 100mM et sur une solution saline d'irrigation intraoculaire (BSS).

[2] = test system: cellules rétiniennes épithéliales ARPE-19; experiment: Number of cells after exposure (Example 4); format: cell-based
Experimental: as §1, §2, §3

[3] = Exposition 5 min, culture 48 h après exposition
[4] = Exposition 30 min, culture 1 h30 après exposition

## eau oxygénée [H2O2 100mM]
[1]; [3]
  % Cellules cytolysées Moyenne: 88,3%
[1]; [4]
  % Cellules cytolysées Moyenne: 73,63%
[2]; [3]
  Nombre de cellules Moyenne: 129,00
[2]; [4]
  Nombre de cellules Moyenne: 29,33

Reference: patent publication EP2758042B1, “STABLE, LOW-TOXICITY, STERILIZABLE COMPOSITION FOR OPHTHALMIC DYING” (Arcadophta, priority 2011, dated 2013)
